Laboratory results as given in ChEMBL document CHEMBL3046348, “Synthesis and antimicrobial screening of novel 2,6-ditertiarybutylpiperidin-4-ones” (2012).
Values after ≈ are worked out from the molar mass of the structure shown.

Experiments:
Type in all cases: functional
Aspergillus niger = test: Antifungal activity against Aspergillus niger after 72 to 96 hr by serial dilution method
Trichoderma = test: Antifungal activity against Trichoderma sp after 72 to 96 hr by serial dilution method
Escherichia coli = test: Antibacterial activity against Escherichia coli after 24 hr by serial dilution method
Klebsiella pneumoniae = test: Antibacterial activity against Klebsiella pneumoniae after 24 hr by serial dilution method
Bacillus subtilis = test: Antibacterial activity against Bacillus subtilis after 24 hr by serial dilution method

Row | MIC (Aspergillus niger) | MIC (Trichoderma) | MIC (Escherichia coli) | MIC (Klebsiella pneumoniae) | MIC (Bacillus subtilis) | SMILES
1 | 64 µg/mL (≈ 205 µM) | 32 µg/mL (≈ 102 µM) | 64 µg/mL (≈ 205 µM) | 32 µg/mL (≈ 102 µM) | 64 µg/mL (≈ 205 µM) | CCOC(=O)C1C(=O)CC(C(C)(C)C)N(N=O)C1C(C)(C)C (stereo not given)
2 | > 512 µg/mL | > 512 µg/mL | 64 µg/mL (≈ 189 µM) | 256 µg/mL (≈ 754 µM) | 16 µg/mL (≈ 47.1 µM) | CCOC(=O)C1C(=O)CC(C(C)(C)C)N(C(C)(C)C)C1C(C)(C)C (stereo not given)
3 | 8 µg/mL (≈ 29.9 µM) | 16 µg/mL (≈ 59.8 µM) | 64 µg/mL (≈ 239 µM) | 128 µg/mL (≈ 479 µM) | 8 µg/mL (≈ 29.9 µM) | CC(C)(C)C1CC(=O)CC(C(C)(C)C)N1C(C)(C)C (stereo not given)
4 | 8 µg/mL (≈ 37.9 µM) | 8 µg/mL (≈ 37.9 µM) | 64 µg/mL (≈ 303 µM) | 64 µg/mL (≈ 303 µM) | 8 µg/mL (≈ 37.9 µM) | CC(C)(C)C1CC(=O)CC(C(C)(C)C)N1 (stereo not given)
5 | 16 µg/mL (≈ 62.9 µM) | 8 µg/mL (≈ 31.4 µM) | > 512 µg/mL | 512 µg/mL (≈ 2010 µM) | 16 µg/mL (≈ 62.9 µM) | CC1C(=O)CC(C(C)(C)C)N(N=O)C1C(C)(C)C (stereo not given)
6 | 8 µg/mL (≈ 28.4 µM) | 16 µg/mL (≈ 56.8 µM) | > 512 µg/mL | 64 µg/mL (≈ 227 µM) | 16 µg/mL (≈ 56.8 µM) | CC1C(=O)CC(C(C)(C)C)N(C(C)(C)C)C1C(C)(C)C (stereo not given)
7 | > 512 µg/mL | > 512 µg/mL | > 512 µg/mL | 256 µg/mL (≈ 1070 µM) | 16 µg/mL (≈ 66.6 µM) | CC(C)(C)C1CC(=O)CC(C(C)(C)C)N1N=O (stereo not given)
8 | 8 µg/mL (≈ 35.5 µM) | 16 µg/mL (≈ 71 µM) | 256 µg/mL (≈ 1140 µM) | > 512 µg/mL | 16 µg/mL (≈ 71 µM) | CC1C(=O)CC(C(C)(C)C)NC1C(C)(C)C (stereo not given)
9 | 64 µg/mL (≈ 283 µM) | 16 µg/mL (≈ 70.7 µM) | 256 µg/mL (≈ 1130 µM) | > 512 µg/mL | 64 µg/mL (≈ 283 µM) | CC(C)(C)C1CC(=NO)CC(C(C)(C)C)N1 (stereo not given)
10 | 8 µg/mL (≈ 33.3 µM) | 8 µg/mL (≈ 33.3 µM) | > 512 µg/mL | 32 µg/mL (≈ 133 µM) | 16 µg/mL (≈ 66.6 µM) | CC1/C(=N/O)CC(C(C)(C)C)NC1C(C)(C)C (stereo not given)
11 | 8 µg/mL (≈ 26.8 µM) | 8 µg/mL (≈ 26.8 µM) | 16 µg/mL (≈ 53.6 µM) | 64 µg/mL (≈ 214 µM) | 64 µg/mL (≈ 214 µM) | CCOC(=O)C1/C(=N\O)CC(C(C)(C)C)NC1C(C)(C)C (stereo not given)
12 | 8 µg/mL (≈ 28.2 µM) | 32 µg/mL (≈ 113 µM) | 64 µg/mL (≈ 226 µM) | 128 µg/mL (≈ 452 µM) | 8 µg/mL (≈ 28.2 µM) | CCOC(=O)C1C(=O)CC(C(C)(C)C)NC1C(C)(C)C (stereo not given)
13 | 32 µg/mL (≈ 34.6 µM) | 32 µg/mL (≈ 34.6 µM) | – | – | – | C[C@@H]1[C@H](O)[C@@H](C)/C=C/C=C/C=C/C=C/C=C/C=C/C=C/[C@H](O[C@@H]2O[C@H](C)[C@@H](O)[C@H](N)[C@@H]2O)C[C@@H]2O[C@](O)(C[C@@H](O)C[C@@H](O)[C@H](O)CC[C@@H](O)C[C@@H](O)CC(=O)O[C@H]1C)C[C@H](O)[C@H]2C(=O)O [AMPHOTERICIN B]

Row | SMILES | MIC (Aspergillus niger) | MIC (Trichoderma) | MIC (Escherichia coli) | MIC (Klebsiella pneumoniae) | MIC (Bacillus subtilis)
14 | CCn1cc(C(=O)O)c(=O)c2cc(F)c(N3CCNCC3)cc21 [NORFLOXACIN] | – | – | 32 µg/mL (≈ 100 µM) | 16 µg/mL (≈ 50.1 µM) | 16 µg/mL (≈ 50.1 µM)
